Our source for the IC50 values is patent publication US20240217968A1, “PHARMACEUTICAL COMPOUND” (DUKE STREET BIO LIMITED, priority 2021, published 2024).

This experiment concerns the target T1, recombinant human Flag-tagged PARP7 (amino acids 456-657) (Homo sapiens, UniProt Q7Z3E1).
T1 construct: recombinant human Flag-tagged PARP7 (amino acids 456-657)
T1 sequence (Q7Z3E1 456-657): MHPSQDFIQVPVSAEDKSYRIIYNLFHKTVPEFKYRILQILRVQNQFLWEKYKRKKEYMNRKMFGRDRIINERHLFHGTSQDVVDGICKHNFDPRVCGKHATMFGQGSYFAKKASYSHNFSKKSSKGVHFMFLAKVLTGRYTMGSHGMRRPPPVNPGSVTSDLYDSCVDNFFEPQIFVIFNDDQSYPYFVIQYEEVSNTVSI
The experiment can be described thus: PARP7 biochemical DELFIA assay (auto-MARylation). As to conditions: DELFIA readout, IC50 class. Put shortly:
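Flag-PARP7 (456-657), 12.5-37.5 nM stock, captured on anti-FLAG wells, preincubated 30 min with compound, then auto-MARylated with biotin-NAD+ (15 μM stock) in HEPES pH 7.5/NaCl/DTT/BSA/Tween for 2-3 h at room temperature. NAD+ quench; Eu-streptavidin DELFIA read, Ex337/Em620 nm.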

With `CC(C)c1cn(CCOCCC(=O)N2CCN(c3ncc(C(F)(F)F)cn3)CC2)c2cn[nH]c(=O)c12` [Compound 150], the IC50 was at most 100 nM.

Regarding `Cc1cn(C(C)COCCC(=O)N2CCN(c3ncc(C(F)(F)F)cn3)CC2)c2cn[nH]c(=O)c12` (centres unmarked) [Compound 152], the IC50 is at most 100 nM.

Turning to `O=C(CCOCCn1nc(C(F)(F)F)c2c(=O)[nH]ncc21)N1CCN(c2ncc(C(F)(F)F)cn2)CC1` [Compound 153, 1-(2-(3-oxo-3-(4-(5-(trifluoromethyl)pyrimidin-2-yl)piperazin-1-yl)propoxy)ethyl)-3-(trifluoromethyl)-1,5-dihydro-4H-pyrazolo[3,4-d]pyridazin-4-one], the IC50 is at most 100 nM.

On to `CC(C)c1nn(CCOCCC(=O)N2CCN(c3ncc(C(F)(F)F)cn3)CC2)c2cn[nH]c(=O)c12` [Compound 154], for which the IC50 is at most 100 nM.

Turning to `CC(COCCn1ncc2c(=O)[nH]ncc21)C(=O)N1CCN(c2ncc(C(F)(F)F)cn2)CC1` (centres unmarked) [Compound 155], the IC50 is at most 100 nM.

In the case of `CC(COCCn1ncc2c(=O)[nH]ncc21)C(=O)N1CCN(c2ncc(C(F)(F)F)cn2)CC1` (centres unmarked) [Compound 156], the IC50 fell in the range of 100 to 1000 nM.

On to `O=C(CCOCCN1C(=O)CCc2c1cn[nH]c2=O)N1CCN(c2ncc(C(F)(F)F)cn2)CC1` [Compound 157], for which the IC50 was at most 100 nM.

Take `O=C(CCOCCc1ccc(F)c2c(=O)[nH]ncc12)N1CCN(c2ncc(C(F)(F)F)cn2)CC1` [Compound 158]: the IC50 was at most 100 nM.

As for `Nc1nc(N2CCN(C(=O)CCOCCc3cccc4c(=O)[nH]ncc34)CC2)ncc1C(F)(F)F` [Compound 159], the IC50 was 100 to 1000 nM.

On to `CC1CN(c2ncc(C(F)(F)F)cn2)CCN1C(=O)CCOCCn1nc(C(F)(F)F)c2c(=O)[nH]ncc21` (centres unmarked) [Compound 160], for which the IC50 is at most 100 nM.

Consider `CC1CN(c2ncc(C(F)(F)F)cn2)CCN1C(=O)CCOCCn1nc(C(F)(F)F)c2c(=O)[nH]ncc21` (centres unmarked) [Compound 161], for which the IC50 was at most 100 nM.

Take `CC(COCCC(=O)N1CCN(c2ncc(C(F)(F)F)cn2)CC1)c1cc(Cl)cc2c(=O)[nH]ncc12` (centres unmarked) [Compound 162]: the IC50 lay in the range of 100 to 1000 nM.

As to `CC(COCCC(=O)N1CCN(c2ncc(C(F)(F)F)cn2)CC1)c1cc(Cl)cc2c(=O)[nH]ncc12` (centres unmarked) [Compound 163], the IC50 is at most 100 nM.

Turning to `CCc1cn(CCOCCC(=O)N2CCN(c3ncc(C(F)(F)F)cn3)CC2)c2cn[nH]c(=O)c12` [Compound 164], the 50% inhibitory concentration (IC50) is at most 100 nM.

Turning to `O=C(OCCCCc1cccc2c(=O)[nH]ncc12)N1CCN(c2ncc(C(F)(F)F)cn2)CC1` [Compound 165], the IC50 was at most 100 nM.

Regarding `CN(CCCC(=O)N1CCN(c2ncc(C(F)(F)F)cn2)CC1)Cc1cccc2c(=O)[nH]ncc12` [Compound 167], the IC50 lay in the range of 100 to 1000 nM.

For the compound `CC(COCCC(=O)N1CCN(c2ncc(C(F)(F)F)cn2)CC1)n1ncc2c(=O)[nH]ncc21` (centres unmarked) [Compound 168], the IC50 was at most 100 nM.

Take `CC(COCCC(=O)N1CCN(c2ncc(C(F)(F)F)cn2)CC1)n1ncc2c(=O)[nH]ncc21` (centres unmarked) [Compound 169]: the IC50 was 100 to 1000 nM.

For the compound `Cc1nc2c(=O)[nH]ncc2n1CCOCCC(=O)N1CCN(c2ncc(C(F)(F)F)cn2)CC1` [Compound 170], the IC50 fell in the range of 100 to 1000 nM.

Turning to `O=C(CCOCCn1nc(C(F)(F)F)c2c(=O)[nH]ncc21)N1CCN(c2nc3cc(Cl)ccc3o2)CC1` [Compound 171], the IC50 was at most 100 nM.

With `O=C(CCOCCc1cccc2c(=O)[nH]ncc12)N1CCN(c2nc3cc(Cl)ccc3o2)CC1` [Compound 172], the IC50 was at most 100 nM.

For the compound `CC1(C)CN(C(=O)CCOCCn2nc(C(F)(F)F)c3c(=O)[nH]ncc32)CCN1c1ccc(C(F)(F)F)cn1` [Compound 173], the half-maximal inhibitory concentration (IC50) is at most 100 nM.

In the case of `CC(COCCC(=O)N1CCN(c2ccc(C(F)(F)F)cn2)CC1)n1nc(C(F)(F)F)c2c(=O)[nH]ncc21` (centres unmarked) [Compound 178], the IC50 is at most 100 nM.

Consider `CC(COCCC(=O)N1CCN(c2ccc(C(F)(F)F)cn2)CC1)n1nc(C(F)(F)F)c2c(=O)[nH]ncc21` (centres unmarked) [Compound 179], for which the IC50 is at most 100 nM.

On to `O=C(CCOCCc1cccc2c(=O)[nH]ncc12)N1CCN(c2nc3ccc(F)cc3o2)CC1` [Compound 180], for which the IC50 was at most 100 nM.

Consider `CC1(C)CN(C(=O)CCOCCn2nc(C(F)(F)F)c3c(=O)[nH]ncc32)CCN1c1ncc(C(F)(F)F)cn1` [Compound 182], for which the IC50 was at most 100 nM.

Consider `O=C(CCOCCn1nc(C(F)(F)F)c2c(=O)[nH]ncc21)N1CCN(c2nc3ccc(F)cc3o2)CC1` [Compound 183], for which the IC50 is at most 100 nM.

For the compound `O=C(CCOCCn1c(C(F)(F)F)nc2c(=O)[nH]ncc21)N1CCN(c2ncc(C(F)(F)F)cn2)CC1` [Compound 184], the concentration for half-maximal inhibition (IC50) lay within 100 to 1000 nM.

Regarding `CC(COCCC(=O)N1CCN(c2ncc(Cl)cn2)CC1)n1nc(C(F)(F)F)c2c(=O)[nH]ncc21` (centres unmarked) [Compound 186], the IC50 is at most 100 nM.

`O=C(CCOCCn1nc(C(F)(F)F)c2c(=O)[nH]ncc21)N1CCN(c2nc3ccc(Cl)cc3o2)CC1` [Compound 191]: the IC50 is at most 100 nM.

`N#Cc1ccc2nc(N3CCN(C(=O)CCOCCc4cccc5c(=O)[nH]ncc45)CC3)oc2c1` [Compound 192]: the IC50 is at most 100 nM.

As for `CC1(C)CN(c2ncc(C(F)(F)F)cn2)CCN1C(=O)CCOCCn1nc(C(F)(F)F)c2c(=O)[nH]ncc21` [Compound 193], the IC50 was at most 100 nM.

Consider `Cn1c(N2CCN(C(=O)CCOCCn3nc(C(F)(F)F)c4c(=O)[nH]ncc43)CC2)nc2ccccc21` [Compound 195], for which the IC50 was at most 100 nM.

In the case of `N#Cc1ccc2oc(N3CCN(C(=O)CCOCCn4nc(C(F)(F)F)c5c(=O)[nH]ncc54)CC3)nc2c1` [Compound 196], the IC50 was at most 100 nM.

As to `O=C(CCOCCc1cccc2c(=O)[nH]ncc12)N1CCC(Oc2ccccc2)CC1` [Compound 197], the IC50 lay in the range of 100 to 1000 nM.

Consider `O=C(CCOCCn1cc(C(F)F)c2c(=O)[nH]ncc21)N1CCN(c2ncc(C(F)(F)F)cn2)CC1` [Compound 198], for which the half-maximal inhibitory concentration (IC50) is at most 100 nM.

Take `O=C(CCOCCc1cccc2c(=O)[nH]ncc12)N1CCN(c2nc3cc(F)ccc3o2)CC1` [Compound 199]: the IC50 is at most 100 nM.

With `O=C(CCOCCn1cc(C(F)F)c2c(=O)[nH]ncc21)N1CCN(c2ccc(C(F)(F)F)cn2)CC1` [Compound 200], the IC50 is at most 100 nM.

In the case of `CC(COCCn1nc(C(F)(F)F)c2c(=O)[nH]ncc21)C(=O)N1CCN(c2ncc(C(F)(F)F)cn2)CC1` (centres unmarked) [Compound 201], the IC50 is at most 100 nM.

Take `CC(COCCn1nc(C(F)(F)F)c2c(=O)[nH]ncc21)C(=O)N1CCN(c2ncc(C(F)(F)F)cn2)CC1` (centres unmarked) [Compound 202]: the IC50 is at most 100 nM.

On to `CCn1cc(CCOCCC(=O)N2CCN(c3ncc(C(F)(F)F)cn3)CC2)c2cn[nH]c(=O)c21` [Compound 203, 1-ethyl-3-(2-(3-oxo-3-(4-(5-(trifluoromethyl)pyrimidin-2-yl)piperazin-1-yl)propoxy)ethyl)-1,6-dihydro-7H-pyrrolo[2,3-d]pyridazin-7-one], for which the IC50 is at most 100 nM.

`N#Cc1ccc(N2CCN(C(=O)c3cccc(Cc4cccc5c4CCCNC5=O)c3)CC2)nc1` [Compound 204]: the IC50 lay in the range of 100 to 1000 nM.

For the compound `O=C(CCOCCc1cccc2c(=O)[nH]ncc12)N1CCN(c2nc3ccc(Cl)cc3o2)CC1` [Compound 205], the IC50 was at most 100 nM.

As to `CC(COCCc1cccc2c(=O)[nH]ncc12)C(=O)N1CCN(c2ncc(C(F)(F)F)cn2)CC1` (centres unmarked) [Compound 206], the IC50 is at most 100 nM.

As usually defined, the IC50 is the point on the concentration scale where inhibition reaches its midpoint.
